In patent publication US6258780A (priority 1997, dated 2001):
Entries after “also recorded” stand apart in the source; their conditions may differ.

How the values were obtained:
[1] = system: serum butyrylcholinesterase (BuChE); experiment: serum BuChE activity after injection in mice; format: in vivo, mouse; conditions: for reduction of serum BuChE activity from normal levels: non-stressed mice, 0.1 mg/kg i.p., 10 minutes, 3 animals/group
Description: Symptoms were reported at the end of the study.
Stress Induction: Stress was induced in adult FVB/N mice by 2×4 minute forced swim with a 4 minute rest interval in a 60×60 cm water bath at about 21° C., adapted from Melia et al, [1994]. […] Animals were decapitated 10 minutes following injection, trunk blood was collected [Melia et al, 1994], and cerebral cortex was quickly dissected and homogenized in solution D (10 mM Tris-HCl, pH 7.4, 1M NaCl, 1% Triton-X100, 1 mM EDTA, 1:10 weight/volume)[Neville et al, 1990]

c-fos mRNA [2] = experiment: brain c-fos mRNA by RT-PCR after pyridostigmine in mice; format: in vivo, mouse; conditions: 20 minutes following 2 mg/kg
AChE mRNA = experiment: brain AChE mRNA by RT-PCR after pyridostigmine in mice; format: in vivo, mouse; conditions: pyridostigmine administration, FIG. 10A lower panel
synaptophysin mRNA = synaptophysin mRNA control test, in vivo or in brain slices; format: cell-based
[3] = system: hippocampal slices, CA1 area; format: cell-based
[4] = Description: Symptoms were reported at the end of the study. […] Percent inhibition (standard deviation was calculated in comparison to the average activity calculated in non-injected, not-stressed (n=12) and stressed (n=6) animals.
In both human studies each individual was asked to report on a yes/no questionnaire regarding symptoms related to the drug.

[5] = system: readthrough (I4) AChEmRNA; experiment: readthrough (I4) AChEmRNA by RT-PCR / in situ hybridization; format: cell-based, mouse
Source text: FIG. 7A are photographs showing kinetic follow-up of RT-PCR: Positions of primer pairs specific for the alternatively spliced AChEmRNA subtypes are presented on the left. [Primer pair 1361+/1869- ("E6") detects mRNA encoding the synaptic AChE form; […] ("I4/E5") detects both a 549 bp product of readthrough AChEmRNA and a 432 bp product encoding the GPI-lined red blood cell (RBC) form of the enzyme]. Note that both in vivo stress and in vitro AChE inhibition promoted significant increases of the readthrough (I4) but not the synaptic (E6) or erythrocyte (E5) forms of AChEmRNA. […] Signals were detected using alkaline phosphatase-streptavidin conjugates and Fast Red as a substrate. Shown are cortical layers II-V (upper panels), and magnified pyramidal neurons of cortical layer no. 2 (lower panels).
Selective induction of readthrough AChEmRNA following stress and AChE inhibition were measured using kinetic follow-up of RT-PCR. The positions of primer pairs specific for the alternatively spliced AChEmRNA subtypes are presented on the left of the FIG. 7. [Primer pair 1361+/1869- ("E6") detects mRNA encoding the synaptic AChE form; 1361+/175- ("I4/E5") detects both a 549 bp product of readthrough AChEmRNA and a 432 bp product encoding the GPI-lined red blood cell (RBC) form of the enzyme]. Both in vivo stress (forced swimming) and in vitro AChE inhibition promoted significant increases of the readthrough (I4) but not the synaptic (E6) or erythrocyte (E5) forms of AChEmRNA. […] Signals were detected using alkaline phosphatase-streptavidin conjugates and Fast Red as a substrate. […] 2 (lower panels).

serum BuChE [6] = conditions: 0.1-0.5 mg/kg; cited from earlier work
serum BuChE [7] = conditions: cited from earlier work
[8] = similar regimen; cited from earlier work
[9] = cited from earlier work
[10] = PNS symptoms questionnaire, pyridostigmine in humans
Remark: listed apart in the source
c-fos mRNA [11] = format: cell-based, mouse; conditions: with pyridostigmine 1 mM, 1 hour; BAPTA-AM 1 uM or TTX
hippocampal slices = experiment: paired-pulse facilitation in hippocampal slices; format: cell-based
ChAT or VAChT mRNA = format: cell-based, mouse; conditions: with pyridostigmine 1 mM, 1 hour; BAPTA-AM 1 uM or TTX
[12] = HRP penetration into brain following swim stress (immunohistochemistry)
[13] = brain penetration of Evans-blue dye following stress; conditions: stressed versus control
[14] = BBB permeability to Evans Blue following stress, adrenaline or atropine (Example 2)

Compound: CN(C)C(=O)Oc1ccc[n+](C)c1 [pyridostigmine]
- reduction of serum BuChE activity from normal levels [1]: 16.7+/-6.9%
- BuChE inhibition in stressed mice ([1]; stressed mice, 0.1 mg/kg): tendency toward limitation of BuChE inhibition
- amount of c-fos and AChE mRNA (earlier appearance of PCR product) (c-fos mRNA [2]): increase in the amount of c-fos (upper panel) and AChE mRNA (lower panel)
- AChE mRNA product appearance (AChE mRNA): earlier appearance
- synaptophysin mRNA (synaptophysin mRNA): no change
- amplitude and rate of rise of evoked population spikes in CA1 [3]: increase in the amplitude and rate of rise of evoked population spikes
- soldiers reporting CNS symptoms, average ([4]; Gulf War, 213 soldiers): 23.6%
- soldiers reporting CNS symptoms, range ([4]; Gulf War, 213 soldiers): 6.2-53.4%
- participants reporting CNS symptoms, average ([4]; peace time, double-blind): 8.3%
- participants reporting CNS symptoms, range ([4]; peace time, double-blind): 0-16.6%
- subcellular localization of I4-AChEmRNA ([5]; pyridostigmine 2 mg/kg): shifted from around the nucleus under control conditions to the entire cell bodies and their apical dendrites
- I4-AChEmRNA labeling of cortical layers ([5]; pyridostigmine 2 mg/kg, control: layers II+V): intensified and included layer III+IV
- readthrough AChE mRNA labeling of somata and apical dendrites, all cortical layers ([5]; pyridostigmine exposure): intensely labeled
- inhibition of serum BuChE activity at protective doses (serum BuChE [6]): 15-30%
- inhibition efficacy of serum butyrylcholinesterase, Gulf War (serum BuChE [7]): not modified
- frequency of reported CNS symptoms, increase during the Gulf War [8]: > 3 fold
- CNS functions in primates ([9]; doses >1 mg/kg): perturb CNS functions
- CNS functions in non-stressed primates or humans at peace time ([9]; non-stressed): unaffected CNS functions
- soldiers reporting PNS symptoms, average ([10]; Gulf War, 213 soldiers): 11.4%
- soldiers reporting PNS symptoms, range ([10]; Gulf War, 213 soldiers): 6.1-20.4%
- participants reporting PNS symptoms, average ([10]; peace time, double-blind): 18.8%
- participants reporting PNS symptoms, range ([10]; peace time, double-blind): 5.5-38.9%

Compound: C[N+](C)(C)CCOC(N)=O [carbachol]
- amplitude of population spikes [3]: increased the amplitude of population spikes
- signal increase by carbamylcholine [3]: dose-dependent increases in signal

Compound: NCCc1ccc(O)c(O)c1 [DA]
- enhancement of the body temperature reduction by coinjection (DA 1.0 mg/kg with pyridostigmine 0.6 mg/kg): approximately 0.5 °C

Compound: CC(=O)OCOC(=O)CN(CC(=O)OCOC(C)=O)c1ccccc1OCCOc1ccccc1N(CC(=O)OCOC(C)=O)CC(=O)OCOC(C)=O [BAPTA-AM]
- anti-cholinesterase-induced change in c-fos mRNA (c-fos mRNA [11]): attenuated; also recorded: suppressed
- physostigmine-induced prolongation of paired-pulse facilitation (hippocampal slices; 1 uM physostigmine and 1 uM BAPTA-AM, 1 hour): complete prevention
- enhanced paired-pulse facilitation (hippocampal slices; BAPTA-AM, FIG. 5A): prevented
- anti-cholinesterase-induced change in ChAT mRNA (ChAT or VAChT mRNA): attenuated; also recorded: suppressed

Compound: CC(C)NC[C@H](O)COc1cccc2ccccc12 (racemic) [propanolol]
- time for body temperature to return to normal (post injection): ≤ 80 min
- time of reduction in body temperature (pyridostigmine alone or together with propanolol): ≤ 40 min

Compound: CN1[C@@H]2CC[C@H]1C[C@@H](OC(=O)C(CO)c1ccccc1)C2 (some centres unmarked) [atropine]
- both phases of physostigmine-mediated hyperactivity [3]: blocked
- suppression 1 hour after removal of atropine [3]: no suppression took place

Compound: HRP: horseradish peroxidase, used to study changes in the BBB
- HRP staining of the hippocampus ([12]; following forced swimming): highest number of stained cells; also recorded: strong HRP staining
- penetration of HRP into brain ([12]; forced swimming stress): increased penetration
- HRP staining, Corpus callosum, non-stressed control ([12]; non-stressed control): little staining
- HRP staining, Hippocampus, CA1-2, non-stressed control ([12]; non-stressed control): no staining
- HRP staining, Medial hypothalamus (arcuate nucleus), non-stressed control ([12]; non-stressed control): + (diffuse staining)
- HRP staining, Hippocampus, CA1-2, stressed ([12]; stressed): staining of cells
- HRP staining of central nucleus of amygdala and paraventricular nucleus of hypothalamus ([12]; stressed mice): absence of HRP staining

Compound: Cc1cc(-c2ccc(/N=N/c3ccc4c(S(=O)(=O)O)cc(S(=O)(=O)O)c(N)c4c3O)c(C)c2)ccc1/N=N/c1ccc2c(S(=O)(=O)O)cc(S(=O)(=O)O)c(N)c2c1O [Evans-blue]
- increase in brain penetration of Evans-blue under stress [13]: > 10 fold
- BBB permeability to Evans Blue ([14]; following stress or 10 minutes after ip adrenaline or atropine): enhanced BBB permeability

Compound: CNCC(O)c1ccc(O)c(O)c1 (centres unmarked) [adrenaline]
- effectiveness in opening the BBB compared with stress ([14]; administered doses and time course, atropine or adrenaline ip): somewhat less effective

Compound: CNC(=O)Oc1ccc2c(c1)[C@]1(C)CCN(C)[C@@H]1N2C [physostigmine]
- reduction of serum BuChE activity from normal levels [1]: 22.6+/-5.4%
- responsiveness of cholinergic pathways to stimulation [3]: prominently muted, approaching that displayed by control slices
- paired-pulse facilitation responses, 1 hour (hippocampal slices; 1 mM physostigmine, 1 hour): prolonged duration and the intense signals of facilitation responses
- paired-pulse facilitation responses, 3 hours (hippocampal slices; 1 mM physostigmine, 3 hours): suppression of both these responses
